Patent US10178875B2, “Methods of modifying or imparting taste using organic compounds” (Givaudan, S.A., priority 2013, dated 2019)

Tests used:
Format in all cases: in vivo
bench-top tasting panel [1] = assay: Umami evaluation in chicken broth; conditions: MSG 0.1%, Example 1 0.0002% by weight, 11 panelists
Method: Umami evaluations were done in dry noodle seasoning, chicken broth, retorted chicken broth, cheese sauce and salted potato chip applications. Each application was prepared using MSG, the experimental umami tastant and a blank which contained neither MSG nor the experimental umami tastant. Next, using a bench-top tasting panel (consisting of 7 to 14 panelists), panelists were asked to record the sensory attribute differences between the control (blank), the MSG application and the application containing the experimental umami tastant. These sensory attributes include umami, saltiness, bitterness, off-notes, mouth feel attribute, lingering attribute and flavor profile differences. […] Turmeric was plated on salt and chicken fat and blended well. Next, the remaining ingredients were added and mixed until well blended. A concentration of 2.5% of the resulting mixture in hot water (82° C. (180° F.)) generated the noodle seasoning broth.

bench-top tasting panel [2] = assay: Umami evaluation in retorted chicken broth (Example 20); conditions: Example 3 4 ppm, Example 13 3 ppm, Example 10 4 ppm, Example 9 3 ppm; for umami strength ranking: MSG 0.20%, 9 panelists
Method: (§1) Umami evaluations were done in dry noodle seasoning, chicken broth, retorted chicken broth, cheese sauce and salted potato chip applications. Each application was prepared using MSG, the experimental umami tastant and a blank which contained neither MSG nor the experimental umami tastant. Next, using a bench-top tasting panel (consisting of 7 to 14 panelists), panelists were asked to record the sensory attribute differences between the control (blank), the MSG application and the application containing the experimental umami tastant. These sensory attributes include umami, saltiness, bitterness, off-notes, mouth feel attribute, lingering attribute and flavor profile differences.
The procedure for the preparation of the retorted chicken broth is the same as in example 16. Compounds from Examples 3, 9, 10 and 13 were spiked individually into the chicken broth generating six samples, as described below.

bench-top tasting panel [3] = assay: Umami evaluation in cheese sauce; conditions: MSG 0.1%, Example 1 0.00025% by weight, 14 panelists
Method: Umami evaluations were done in dry noodle seasoning, chicken broth, retorted chicken broth, cheese sauce and salted potato chip applications. Each application was prepared using MSG, the experimental umami tastant and a blank which contained neither MSG nor the experimental umami tastant. Next, using a bench-top tasting panel (consisting of 7 to 14 panelists), panelists were asked to record the sensory attribute differences between the control (blank), the MSG application and the application containing the experimental umami tastant. These sensory attributes include umami, saltiness, bitterness, off-notes, mouth feel attribute, lingering attribute and flavor profile differences. […] Annatto was plated on a mixture of salt, citric acid and lactic acid and blended well. Next, the remaining ingredients were added and mixed until well blended.

bench-top tasting panel [4] = assay: Umami evaluation on salted potato chips (Example 22); conditions: 1% salted potato chips, Example 3 10 ppm, Example 13 10 ppm, Example 10 6 ppm, Example 9 10 ppm; for umami strength ranking: MSG 0.2%, 9 panelists
Method: as §1
The potato chips were prepared as previously described in example 19 and spiked with compounds from Examples 3, 9, 10 and 13 as described below.

bench-top tasting panel [5] = assay: Bain marie (hot water bath) test with chicken broth; conditions: hot water bath 150° F. for 4 hours, Example 3 3 ppm, Example 13 2 ppm (table), Example 10 3 ppm, Example 9 2 ppm; for umami strength ranking: MSG 0.20%, 7 panelists
Method: as §1
Chicken broth was prepared as previously described in example 15. Compounds from Examples 3, 9, 10 and 13 were added to the chicken broth in the concentrations described below and placed in a hot water bath (150° F.) for 4 hours prior to taste evaluation.

bench-top tasting panel [6] = assay: Umami evaluation on salted potato chips (Example 19); conditions: 1% salted potato chips; MSG 0.2%, Example 1 3 ppm (0.0003% by weight); 14 panelists
Method: as §1
One percent salt was added to a standard unsalted potato chip.

bench-top tasting panel [7] = assay: Umami evaluation in noodle seasoning broth; conditions: MSG 0.1%, Example 1 0.0001% by weight, 11 panelists
Method: Umami evaluations were done in dry noodle seasoning, chicken broth, retorted chicken broth, cheese sauce and salted potato chip applications. Each application was prepared using MSG, the experimental umami tastant and a blank which contained neither MSG nor the experimental umami tastant. Next, using a bench-top tasting panel (consisting of 7 to 14 panelists), panelists were asked to record the sensory attribute differences between the control (blank), the MSG application and the application containing the experimental umami tastant. These sensory attributes include umami, saltiness, bitterness, off-notes, mouth feel attribute, lingering attribute and flavor profile differences. [table] Turmeric was plated on salt and palm fat and blended well. Next, the remaining ingredients were added and mixed until well blended. A concentration of 1.5% of the resulting mixture in hot water generated the noodle seasoning broth. The following three samples were tasted and compared. [table]

panel of trained tasters = assay: Taste evaluation in water
Method: A one percent cut of each compound of Examples 1-13 was prepared first. The hydrochloride salts were cut directly into water, while the free base examples were cut into ethanol. Next, 100 ml of a 1 ppm, 10 ppm and 20 ppm solution were prepared. The 1 ppm standards were prepared by addition of 0.0126 ml (cut in ethanol) or 0.01 ml (cut in water) to an amber bottle followed by dilution to 100 g total sample weight using water. The 10 and 20 ppm solutions were prepared similarly, but using 0.126 ml ethanol/0.1 ml water or 0.252 ml ethanol/0.2 ml water of the 1% cuts respectively. Next, the samples were evaluated by a panel of trained tasters.

| Compound | umami strength ranking (bench-top tasting panel [1]) | umami strength ranking (bench-top tasting panel [2]) | umami strength ranking (bench-top tasting panel [3]) | umami strength ranking (bench-top tasting panel [4]) | umami strength ranking (bench-top tasting panel [5]) | umami strength ranking (bench-top tasting panel [6]) | umami strength ranking (bench-top tasting panel [7]) | taste (panel of trained tasters; 1 ppm in water) | taste (panel of trained tasters; 10 ppm in water) | aroma (panel of trained tasters; 20 ppm in water) | taste (panel of trained tasters; 20 ppm in water) | flavor profile described by panelists (bench-top tasting panel [2]) | flavor profile described by panelists (bench-top tasting panel [4]) | flavor profile described by panelists (bench-top tasting panel [5]) | aroma (panel of trained tasters; 10 ppm in water) | aroma (panel of trained tasters; 1 ppm in water) |
| --- | --- | --- | --- | --- | --- | --- | --- | --- | --- | --- | --- | --- | --- | --- | --- | --- |
| N[C@@H](CCC(=O)O)C(=O)[O-].[Na+] [MSG, monosodium glutamate, reference compound] | MSG>Example 1>Blank Chicken Broth | MSG>3 ppm example 9>3 ppm Example 13>4 ppm Example 3>Blank retorted chicken broth>4 ppm Example 10 | MSG>Example 1>Blank Cheese Sauce | 10 ppm Example 3>10 ppm Example 9>MSG>10 ppm Example 13>blank>6 ppm Example 10 | MSG>2 ppm example 9>3 ppm Example 10=4 ppm Example 13>Blank chicken broth>3 ppm Example 3 | MSG>3 ppm Example 1>1 ppm Example 1>Blank Salted Chips | MSG>Example 1>Blank Noodle Seasoning |  |  |  |  |  |  |  |  |  |
| COc1ccc(SCCc2ccccn2)cc1.Cl [Example 13, 2-(2-((4-METHOXYPHENYL)THIO)ETHYL)PYRIDINE HYDROCHLORIDE] |  | MSG>3 ppm example 9>3 ppm Example 13>4 ppm Example 3>Blank retorted chicken broth>4 ppm Example 10 |  | 10 ppm Example 3>10 ppm Example 9>MSG>10 ppm Example 13>blank>6 ppm Example 10 | MSG>2 ppm example 9>3 ppm Example 10=4 ppm Example 13>Blank chicken broth>3 ppm Example 3 |  |  | Weak umami, very weak bitter, astringent | Moderate to strong umami, very weak: bitter, | pyrazine | Strong umami, very weak bitter | a slightly sweet/slightly bitter profile | A good, salty, umami profile | mid/late umami with some late onset bitterness |  |  |
| COC(=O)c1ccccc1SCCc1ccccn1.Cl [Example 9, METHYL 2-((2-(PYRIDIN-2-YL)ETHYL)THIO)BENZOATE HYDROCHLORIDE] |  | MSG>3 ppm example 9>3 ppm Example 13>4 ppm Example 3>Blank retorted chicken broth>4 ppm Example 10 |  | 10 ppm Example 3>10 ppm Example 9>MSG>10 ppm Example 13>blank>6 ppm Example 10 | MSG>2 ppm example 9>3 ppm Example 10=4 ppm Example 13>Blank chicken broth>3 ppm Example 3 |  |  | weak: umami, astringent, very weak: salty, | moderate umami,, weak: salty, astringent, very |  | moderate umami, weak: salty, astringent, | a sweet, full umami profile | better mouthfeel, slight to moderate umami with an overall clean profile | a boost in saltiness along with a strong, full umami taste profile |  |  |
| COC(=O)c1ccc(SCCc2ccccn2)cc1.Cl [Example 3, METHYL 4-((2-(PYRIDIN-2-YL)ETHYL)THIO)BENZOATE HYDROCHLORIDE] |  | MSG>3 ppm example 9>3 ppm Example 13>4 ppm Example 3>Blank retorted chicken broth>4 ppm Example 10 |  | 10 ppm Example 3>10 ppm Example 9>MSG>10 ppm Example 13>blank>6 ppm Example 10 | MSG>2 ppm example 9>3 ppm Example 10=4 ppm Example 13>Blank chicken broth>3 ppm Example 3 |  |  | weak to moderate umami, very weak: bitter, | moderate umami, weak: bitter, metallic, | bloody metallic | moderate to strong umami, weak: bitter, | a sweeter flavor profile with a build up of umami character | a slight to moderate level of umami along with strong salty profile | a bitter, limited umami flavor profile | bloody metallic |  |
| Oc1cccc(SCCc2ccccn2)c1 [Example 10, 3-((2-(PYRIDIN-2-YL)ETHYL)THIO)PHENOL] |  | MSG>3 ppm example 9>3 ppm Example 13>4 ppm Example 3>Blank retorted chicken broth>4 ppm Example 10 |  | 10 ppm Example 3>10 ppm Example 9>MSG>10 ppm Example 13>blank>6 ppm Example 10 | MSG>2 ppm example 9>3 ppm Example 10=4 ppm Example 13>Blank chicken broth>3 ppm Example 3 |  |  | very weak bitter | weak: umami, metallic, very weak: bitter, | vegetable |  | a green pepper aroma and was slightly bitter | a nice salty, slight umami profile along with a slight offnote | mid/late umami along with a slight bitterness and off notes |  | green |
